According to patent US20170360779A1, “PHARMACEUTICAL COMPOSITION COMPRISING BICYCLIC NITROGEN-CONTAINING AROMATIC HETEROCYCLIC AMIDE COMPOUND AS ACTIVE INGREDIENT” (Astellas Pharma Inc., priority 2014, published 2017):
pEC50: −log10 of the molar value.

Assays:
NCI-H1395 cells [1] = experiment: Anti-tumor test (2) on mice bearing NCI-H1395 tumors; assay type: in vivo, BALB/c nude mice; details: final measuring day
Protocol: (§1) A427 cells and NCI-H1395 cells which are LKB1 mutation-positive non-small cell lung cancer cell lines, and HARA cells and NCI-H1993 cells which are LKB1 wild-type non-small cell lung cancer cell lines, suspended in a mixed solution of PBS and Matrigel (registered trademark) in 1:1, were injected and implanted, 3×10^6 cells each (for A427 cells, 5×10^6), to 4- to 5-week-old male BALB/c nude mice (Charles River Laboratories Japan, Inc.) under the skin on the back. Dividing into groups was performed when the tumor volume reached 100 to 300 mm^3, and administering of the test compounds was started. The test was performed on each of the 5 mice in the solvent group and the compound administered group. By oral administration, 6% cyclodextrin aqueous solution for the solvent group, and 6% cyclodextrin aqueous solution in which the test compound was mixed by the dosage shown in Table 4 for the compound administered group were administered. The administration was performed once a day for 14 days (HARA), 21 days (A427, NCI-H1993), or 35 days (NCI-H1395), and the body weight and the tumor diameter were measured twice a week. For calculation of the tumor volume, the formula below was used.
(§2) [Tumor volume (mm^3)]−[major axis of tumor (mm)]×[minor axis of tumor (mm)]^2×0.5
(§3) The inhibition rate of tumor growth and the rate of tumor regression were calculated from the average value of the tumor volume according to the formula below.
(§4) Inhibition rate of tumor growth (%)=(1−average of tumor volume growth in each group/average of tumor volume growth in control group)×100
(§5) Rate of tumor regression (%)=(1−average tumor volume in each group on measuring day/average tumor volume in each group when dividing groups)×100

HARA cells [2] = experiment: Anti-tumor test (2) on mice bearing HARA tumors; assay type: in vivo, BALB/c nude mice; details: Test Example 4, HARA, final measuring day
Protocol: as §1, §2, §3, §4, §5

A427 cells [3] = experiment: Anti-tumor test (2) on mice bearing A427 tumors; assay type: in vivo, BALB/c nude mice; details: final measuring day
Protocol: as §1, §2, §3, §4, §5

A427 cells [4] = experiment: Anti-tumor test (1) on mice bearing A427 tumors; assay type: in vivo, BALB/c nude mice; details: Test Example 3, A427 (LKB1 mutation-positive), 8 mg/kg oral once a day for 21 days, final measuring day
Protocol: (§6) A427 cells and NCI-H1395 cells which are LKB1 mutation-positive non-small cell lung cancer cell lines, and HARA cells and NCI-H1993 cells which are LKB1 wild-type non-small cell lung cancer cell lines, suspended in a mixed solution of PBS and Matrigel (registered trademark) in 1:1, were injected and implanted, 3×10^6 cells each, to 4- to 5-week-old male BALB/c nude mice (Charles River Laboratories Japan, Inc.) under the skin on the back. After that, administering of the test compounds was started after confirming that the average tumor volume exceeded 100 mm^3. The test was performed on each of the 4 to 5 mice in a solvent group and a compound administered group. By oral administration, 6% cyclodextrin aqueous solution for the solvent group, and 6% cyclodextrin aqueous solution in which the test compound was mixed by 8 mg/kg for the compound administered group were administered. The administration was performed once a day for 14 days (NCI-H1993, HARA), 21 days (A427), or 35 days (NCI-H1395), and the body weight and the tumor diameter were measured twice a week. For calculation of the tumor volume, the formula below was used.
(§7) [Tumor volume (mm^3)]=[major axis of tumor (mm)]×[minor axis of tumor (mm)]^2×0.5
(§8) The inhibition rate of tumor growth and the rate of tumor regression were calculated from the average value of the tumor volume according to the formula below. […]

HARA cells [5] = experiment: Anti-tumor test (1) on mice bearing HARA tumors; assay type: in vivo, BALB/c nude mice; details: Test Example 3, HARA (LKB1 wild-type), 8 mg/kg oral once a day for 14 days, final measuring day
Protocol: as §6, §7, §8

NCI-H1993 cells [6] = experiment: Anti-tumor test (1) on mice bearing NCI-H1993 tumors; assay type: in vivo, BALB/c nude mice; details: Test Example 3, NCI-H1993 (LKB1 wild-type), 8 mg/kg oral once a day for 14 days, final measuring day
Protocol: as §6, §7, §8

NCI-H1993 cells [7] = experiment: Anti-tumor test (2) on mice bearing NCI-H1993 tumors; assay type: in vivo, BALB/c nude mice; details: final measuring day
Protocol: as §1, §2, §3, §4, §5

NCI-H1395 cells [8] = experiment: Anti-tumor test (1) on mice bearing NCI-H1395 tumors; assay type: in vivo, BALB/c nude mice; details: Test Example 3, NCI-H1395 (LKB1 mutation-positive), 8 mg/kg oral once a day for 35 days, final measuring day
Protocol: as §6, §7, §8

AMPK = experiment: Evaluation on effect of activating AMPK (phosphorylation of ACC Ser79, Cell ELISA in MDA-MB-453 cells); assay type: cell-based; details: Homo sapiens, 2 hours, concentration as freebase
Protocol: 36 μl each of MDA-MB-453 cells was seeded in Leibovitz's L-15 medium including 10% fetal bovine serum (Life Technologies Corporation) in a 384 well plate so that the cells became 15,000 cells per well, and the cells were cultured overnight at 37° C. in the absence of CO2. […] After that, the cells were cultured at 37° C. for 2 hours in the absence of CO2. 20 μl of a 40% glyoxal solution (Nacalai Tesque, INC.) was added to each well, and then the cells were left to stand at room temperature for 30 minutes to be fixed. Thereafter, the supernatant was removed by centrifuging the plate (at 800 rpm for 8 seconds by using the Ecospin of C.A.N. Hereinafter the centrifugation was performed under the same conditions unless otherwise specified), and 20 μl of 0.1% Triton X-100-containing Phosphate-Buffered Saline (PBS) was added to each well, and then left to stand at room temperature for 10 minutes. The 0.1% Triton X-100-containing PBS was removed by centrifugation, and 20 μl of a blocking solution (Odyssey Blocking Buffer manufactured by LI-COR Biosciences, Inc.) was added to each well, and then left to stand at room temperature for 1 hour. […] On the following day, the reaction solution was removed by centrifuging the plate, and 25 μl of 0.05% Tween-20-containing Tris-Buffered Saline (TBS) (manufactured by Thermo Scientific; used in 1× by diluting 20×TBS Tween-20 with ion-exchange water) was added to each well, and then each well was washed by centrifugal removal. The washing was performed for a total of 3 times. […] The reaction solution was removed by centrifuging the plate, and then each well was washed for 3 times with 0.05% Tween-20-containing TBS in the same manner as after the primary antibody reaction. After the washing solution was removed, the plate was air-dried at room temperature for 3 hours or longer and signals were measured by Aerius (manufactured by LI-COR Biosciences, Inc.).

[9] = Test Example 4, NCI-H1395, 8 mg/kg oral once a day for 35 days
[10] = 8 mg/kg oral once a day for 14 days
[11] = Test Example 4, A427, 8 mg/kg oral once a day for 21 days
[12] = Test Example 4, NCI-H1993, 8 mg/kg oral once a day for 21 days
[13] = Test Example 4, NCI-H1395, 1 mg/kg oral once a day for 35 days
[14] = 1 mg/kg oral once a day for 14 days
[15] = Test Example 4, A427, 1 mg/kg oral once a day for 21 days
[16] = Test Example 4, NCI-H1993, 1 mg/kg oral once a day for 21 days

COc1ccc(CN2CCC(c3ccc4[nH]c(C(=O)N5CCN(Cc6ccc(C(F)(F)F)cc6)CC5)nc4c3)CC2)cn1 [Compound A1, (5-{1-[(6-methoxypyridin-3-yl)methyl]piperidin-4-yl}-1H-benzimidazol-2-yl){4-[4-(trifluoromethyl)benzyl]piperazin-1-yl}methanone]
Inhibition rate NCI-H1395 (NCI-H1395 cells [1]; [9]): 61%
Inhibition rate HARA (HARA cells [2]; [10]): 1.2%
Inhibition rate A427 (A427 cells [3]; [11]): 84% inhibition
Rate of tumor regression (A427 cells [4]): 41% regression
Inhibition rate of tumor growth (HARA cells [5]): 32% inhibition
Inhibition rate of tumor growth (NCI-H1993 cells [6]): 62% inhibition
Inhibition rate NCI-H1993 (NCI-H1993 cells [7]; [12]): 47%
Rate of tumor regression (NCI-H1395 cells [8]): 16% regression

COc1cnc(CN2CCC(c3ccc4[nH]c(C(=O)N5CCN(Cc6ccc(C(F)(F)F)cc6)CC5)nc4c3)CC2)cn1 [Compound B1, (5-{1-[(5-methoxypyrazin-2-yl)methyl]piperidin-4-yl}-1H-benzimidazol-2-yl) {4-[4-(trifluoromethyl)benzyl]piperazin-1-yl}methanone]
Inhibition rate NCI-H1395 (NCI-H1395 cells [1]; [9]): 74%
Inhibition rate HARA (HARA cells [2]; [10]): 14%
pEC50 (AMPK): 8.08
Inhibition rate A427 (A427 cells [3]; [11]): 99% inhibition
Inhibition rate NCI-H1993 (NCI-H1993 cells [7]; [12]): 62%

CCOc1cnc(CN2CCC(c3ccc4cc(C(=O)N5CCN(Cc6ccc(C#N)cc6)CC5)n(C)c4c3)CC2)cn1 [Compound C1, 4-({4-[(6-{1-[(5-ethoxypyrazin-2-yl)methyl]piperidin-4-yl}-1-methyl-1H-indol-2-yl)carbonyl]piperazin-1-yl}methyl)benzonitrile]
Inhibition rate NCI-H1395 (NCI-H1395 cells [1]; [13]): 75%
Inhibition rate HARA (HARA cells [2]; [14]): 29%
pEC50 (AMPK): 8.74
Regression rate A427 (A427 cells [3]; [15]): 69% regression
Inhibition rate NCI-H1993 (NCI-H1993 cells [7]; [16]): 50%

COc1cnc(CN2CCC(c3ccc4c(c3)cc(C(=O)N3CCN(Cc5ccc(C#N)cc5)CC3)n4C)CC2)cn1 [Compound D1, 4-({4-[(5-{1-[(5-methoxypyrazin-2-yl)methyl]piperidin-4-yl}-1-methyl-1H-indol-2-yl)carbonyl]piperazin-1-yl}methyl)benzonitrile]
Inhibition rate NCI-H1395 (NCI-H1395 cells [1]; [13]): 70%
Inhibition rate HARA (HARA cells [2]; [14]): 31%
pEC50 (AMPK): 8.48
Inhibition rate A427 (A427 cells [3]; [15]): 96% inhibition
Inhibition rate NCI-H1993 (NCI-H1993 cells [7]; [16]): 42%
